Legend:
[1] = Efficacy of renitrosation catalysts by N1-nitrozotriptophan denitrosation kinetics; format: biochemical; details: 32°C, normalized for the buffer molarity
Experimental: The efficacy of renitrosation catalysts was determined by N^1-nitrozotriptophan (NOW) denitrosation kinetics in the composition of an acylic derivative or serum albumin at 32°C and at different pH values by absorption decrease at λ = 340 nm or by differential spectroscopy relative to denitrosation reaction in a buffer solution, in relation to nitrite/nitrate ratio or by the ratio analysis of nitrosation products. Examples 7-17 illustrate catalytic and inhibitory activity of W^0/W^0buffer compounds used in the claimed compositions (normalized for the buffer molarity).

[2] = system: NO oxidation in blood; experiment: In vivo micellar NO oxidation catalysis: arterial pressure and plasma nitrite/nitrate; parameters: species or system male rats of Wistar normotensive line; details: for nitrate increased by / nitrite level increased by: plasma, following NaNO2 injection
Experimental: The experiment was performed on male rats of Wistar normotensive line weighing 180-400 grams. Polyethylene catheters were implanted to animals under Ketamine anesthesia (5mg/100g intraperitoneally) 24 hours prior to the experiment. The femoral artery was catheterized for connecting to arterial blood pressure (AP) transducer and the femoral vein was catheterized for intravenous administering medicinal preparations. AP and heart rate (HR) were measured in the abdominal aorta using a pressure transducer connected to a computer through an amplifier and a digital converter. The animals were divided into groups each consisting of a control and a test subgroups. […] Monitoring AP and HR was continued for 1.5 hours after administering the solutions. Following recording initial AP level group one (group L-NAME) was intraperitonelly administered an inhibitor of NO-synthases N^ω-nitro-L-arginine methyl ester (50 mg/kg) and in 1.5 hours when AP stabilized at a steady level NaNO2 (1 mg/kg) was administered. After a steady lowering AP the animals were administered Perftoran or KH. Group two of rats (group FC) was administered Perftoran or KH immediately after recording initial AP level. Group three (group FCTh) was first administered 200 mg/kg α-lipoic acid and in 15 minutes it was administered Perftoran (or KH). Before commencement of each experiment, after AP got stabilized at a steady level while administering L-NAME and NaNO2 and also immediately following completion of monitoring 0.2 ml blood were taken in each experiment from the arterial catheter for analysis.

[3] = reference buffer Phosphate, pH 6.3
[4] = group L-NAME, experimental animals

O=P([O-])([O-])OP(=O)([O-])OP(=O)([O-])[O-].[Na+].[Na+].[Na+].[Na+].[Na+] [Example 7, Na5P3O10]
W^0/W^0 buffer [1, 3]: 4

O=P([O-])([O-])OP(=O)([O-])OP(=O)([O-])[O-].[Mn+2].[Na+].[Na+].[Na+] [Example 9, Na3MnP3O10]
W^0/W^0 buffer [1, 3]: 21

O=P([O-])([O-])OP(=O)([O-])OP(=O)([O-])[O-].[Mg+2].[Na+].[Na+].[Na+] [Example 10, Na3MgP3O10]
W^0/W^0 buffer [1, 3]: 11

NC(N)=NCCCC(N)C(=O)O [Example 13, D-Arg]
W^0/W^0 buffer ([1]; reference buffer MOPS, pH 6): 0.56

O=C1O[C@H]([C@@H](O)CO)C(O)=C1O [Example 17, Ascorbic acid]
W^0/W^0 buffer ([1]; reference buffer Phosphate, pH 5.9): 32

COC(=O)[C@@H](N)CCCNC(=N)N[N+](=O)[O-] [L-NAME, N^ω-nitro-L-arginine methyl ester]
Plasma levels of nitrites and nitrates ([2]; group L-NAME, after NOS inhibitor administration): insignificant lowering | mean arterial blood pressure (MAP) raised by ([2]; group L-NAME, both subgroups, following L-NAME 50 mg/kg intraperitoneally): 38±5 mm Hg

O=N[O-].[Na+] [NaNO2]
lowering MAP by ([2]; group L-NAME, both subgroups, NaNO2 1 mg/kg after L-NAME): 25±4 mm Hg | nitrate increased by ([2]; group L-NAME, controls): 76 ± 26 µM | nitrite level increased by ([2]; group L-NAME, controls): 362 ± 73 µM | nitrate increased by [2, 4]: 87 ± 15 µM | nitrite level increased by [2, 4]: 344 ± 68 µM

O=C(O)CCCCC1CCSS1 (stereo not drawn) [α-lipoic acid]
MAP change ([2]; FCTh group, both subgroups, α-lipoic acid 200 mg/kg): insignificant lowering MAP

Na2MnATP [Example 8]
W^0/W^0 buffer [1, 3]: 0.7

Reference: EP1214933A1, “METHOD FOR MODULATING THE METABOLISM OF NITROGEN OXIDES, COMPOSITIONS THEREFOR (AND VARIANTS) AND METHOD FOR ACTING ON A PATIENT'S ORGANISM NECESSITATING THE METABOLISM OF NITROGEN OXIDES TO BE CORRECTED” (Institut Molekulyarnoi Genetiki Rossiiskoi Akademii Nauk ( …, priority 1999, dated 2001)
